Laboratory results: patent US20100249064A1, “METHODS AND COMPOSITIONS FOR TREATING DISEASES AND CONDITIONS INVOLVING HIGHER MOLECULAR WEIGHT HYALURONAN” (University of Chicago, priority 2007, published 2010)
“Also recorded” adds a separate entry of the source.

What was measured:
RhoA and Rac = assay: Rho family activation assay; type: cell-based, human; details: 100 nM HA; for Rac1 activation: LMW-HA 5 min, HMW-HA 5, 15, 30 min
Protocol: Rho Family Activation Assay—The RhoA and Rac activation assays using human lung EC were performed as described (Ren et al., 1999).

purified HABP2 = molecular target: T1, purified HABP2 (Homo sapiens, UniProt Q14520); assay: HABP2 protease assay (QuantiCleave, succinylated casein); type: biochemical; details: purified HABP2, various concentrations of HA
T1 construct: host or cells: human pulmonary endothelial cells (EC); secreted into the medium, immunoprecipitated with anti-HABP2 antibody
Protocol: HABP2 protease assay. Protease activity is measured using the QuantiCleave™ Protease Assay Kit (Pierce). Briefly, the immunobeads are incubated with succinylated casein for one hour followed by development with TNBSA (2,4,6-trinitrobenzene sulfonic acid) and read at 450 nm.
HABP2 protein purification and protease activity determination. Media from HABP2 overexpression vector-transfected EC (Origene) was immunoprecipitated with anti-HABP2 antibody-conjugated Sepharose beads (Sigma). The immunobeads were then extensively washed in 50 mM Borate, pH=8.5 and eluted with 1M NaCl with 0.1% NP-40 and dialyzed against a 1,000 fold excess of 50 mM Borate, pH=8.5. Protein assays were performed to quantitate total protein. The purified protein was run on SDS-PAGE and either immunoblotted with anti-HABP2 antibody (Novus Biologicals) or stained with Imperial™ protein stain (Pierce) to check for purity. Protease activity was measured using the QuantiCleave™ Protease Assay Kit (Pierce). Briefly, the immunobeads were incubated with succinylated casein for one hour followed by development with TNBSA (2,4,6-trinitrobenzene sulfonic acid) and read at 450 nm.
Determination of the role of HMW-HA/HABP2/C1INH interactions in regulating angiogenesis in vitro. Human pulmonary EC (Cambrex), grown in EBM-2 complete medium (Cambrex) at 37° C. in a humidified atmosphere of 5% CO2, 95% air, with passages 6-10 used for experimentation will be treated with or without 100 nM HMW-HA and/or 100 nM VEGF in the presence or absence of HABP2 and/or C1INH overexpression vectors (Origene), exogenous purified recombinant HABP2 polyanion binding domain and/or C1INH (Novus Biologicals) and/or siRNA (scramble, HABP2 or C1INH). For HABP2 protease activity determination, media from HABP2 overexpressing EC (see above) was immunoprecipitated with anti-HABP2 antibody-conjugated Sepharose beads (Sigma). The immunobeads were then extensively washed in 50 mM Borate, pH=8.5 and protease activity was measured using the QuantiCleave™ Protease Assay Kit (Pierce). Briefly, the immunobeads were incubated with succinylated casein for one hour followed by development with TNBSA (2,4,6-trinitrobenzene sulfonic acid) and read at 450 nm.

Human pulmonary EC = assay: TER, Example 5; type: cell-based; details: for change in TER: human pulmonary EC, Example 5
Protocol: Measurement of TransEC Electrical Resistance (TER). EC were grown to confluence in polycarbonate wells containing evaporated gold microelectrodes, and TER measurements performed using an electrical cell-substrate impedance sensing system (Applied Biophysics, Troy, N.Y.) as previously described (Garcia et al., 2001). TER values from each microelectrode were pooled at discrete time points and plotted versus time as the mean±S.E.

HPMVEC = assay: EC proliferation (CellTiter96 MTS); type: cell-based, human; details: 100 nM HA with or without 100 nM VEGF, or siRNA 48 hours then VEGF; 24 h
Protocol: Determination of the role of HMW-HA/CD44 interactions in regulating hyaluronidase activity and angiogenesis in vitro. Human pulmonary microvascular EC (HPMVEC) (Cambrex), grown in EBM-2 complete medium (Cambrex) at 37° C. in a humidified atmosphere of 5% CO2, 95% air, with passages 6-10 used for experimentation was treated with or without 100 nM HMW-HA and/or 100 nM VEGF in the presence or absence of CD44 isoform-specific blocking antibodies (EMD Biosciences), siRNA (scramble, CD44, Hyal-1, Hyal-2, Hyal-3 or Hyal-4) and the potent hyaluronidase inhibitor, L-ascorbic acid 6-hexadecanoate (Botzki et al., 2004) (Sigma). […] Treated EC will either be analyzed for protein expression, hyaluronidase activity or VEGF-induced proliferation, migration or tube formation. […] Cells from the upper and lower chamber were quantitated using the CellTiter96™ MTS assay (Promega, San Luis Obispo, Calif.) and read at 492 nm. % migration was defined as the # of cells in the lower chamber […] the number of cells in both the upper and lower chamber. Each assay was set up in triplicate, repeated at least five times and analyzed statistically by Student's t test (with statistical significance set at P<0.05). […] The in vitro cell proliferation assay was analyzed by measuring increases in cell number using the CellTiter96™ MTS assay (Promega, San Luis Obispo, Calif.) and read at 492 nm. […]

T1 sequence (Q14520 24-560): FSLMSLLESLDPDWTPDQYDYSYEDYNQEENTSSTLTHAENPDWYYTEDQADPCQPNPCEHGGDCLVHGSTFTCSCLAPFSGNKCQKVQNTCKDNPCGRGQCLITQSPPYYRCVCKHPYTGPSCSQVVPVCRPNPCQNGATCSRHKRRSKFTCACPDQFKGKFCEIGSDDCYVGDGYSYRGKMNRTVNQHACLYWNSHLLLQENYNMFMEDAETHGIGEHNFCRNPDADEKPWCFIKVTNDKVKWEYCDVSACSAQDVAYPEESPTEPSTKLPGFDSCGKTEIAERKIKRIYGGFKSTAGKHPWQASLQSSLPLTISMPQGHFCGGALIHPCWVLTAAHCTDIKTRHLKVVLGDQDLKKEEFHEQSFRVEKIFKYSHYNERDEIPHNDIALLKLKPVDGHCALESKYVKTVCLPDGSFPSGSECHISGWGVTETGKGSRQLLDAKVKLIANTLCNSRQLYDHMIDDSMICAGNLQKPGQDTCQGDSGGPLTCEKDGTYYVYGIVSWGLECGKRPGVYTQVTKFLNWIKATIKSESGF

Substance	RhoA activation (RhoA and Rac; 15-30 min)	Rac1 activation (RhoA and Rac)	HABP2 protease activity (purified HABP2)	HABP2 protease activity (purified HABP2; listed as low MW hyaluronan)	change in TER (Human pulmonary EC; listed as low MW HA)	EC proliferation (% Proliferation) (HPMVEC)	HABP2 protease activity (purified HABP2; listed as High molecular weight hyaluronan)	HABP2 protease activity (purified HABP2; listed as high MW hyaluronan)	time at which HMW-HA-induced increase in TER reached plateau (Human pulmonary EC)	protection from LPS-induced EC barrier disruption (TER) (Human pulmonary EC; HMW-HA (100 ng/ml), at 6 hours)	change in TER (Human pulmonary EC; listed as High MW HA)
hyaluronan [LMW-HA, reference compound]	promoted RhoA activation	induced Rac1 activation	activates; also recorded: enhances	increased the protease activity of purified HABP2 in a dose-dependent manner	biphasic response ultimately leading to EC barrier disruption	promotes EC proliferation and migration	–	–	–	–	–
hyaluronan [HMW-HA]	–	induced Rac1 activation	inhibits	–	–	inhibited VEGF-induced hyaluronidase expression, EC proliferation (A) and migration (B)	directly binds and inhibits the enzymatic activity of HABP2	reduced its activity	~3 h	protects from LPS-induced EC barrier disruption	dose-dependent increase in TER
